# Measured values reported in ChEMBL document CHEMBL3217756, “Biological and computational evaluation of an oxadiazole derivative (MD77) as a new lead for direct STAT3 inhibitors” (Medchemcomm, 2012).
# Legend:
# CCRF-CEM = assay: Cytotoxicity against human CCRF-CEM cells after 48 hrs by sulforhodamine B assay; assay type: functional
# A498 = assay: Cytotoxicity against human A498 cells after 48 hrs by sulforhodamine B assay; assay type: functional; conditions: A498, 48 h
# [1] = Cytotoxicity against human OVCAR8 cells after 48 hrs by sulforhodamine B assay; assay type: functional; conditions: OVCAR-8, 48 h
# SK-OV-3 = assay: Cytotoxicity against human SKOV3 cells after 48 hrs by sulforhodamine B assay; assay type: functional; conditions: SK-OV-3, 48 h
# SF-268 = assay: Cytotoxicity against human SF268 cells after 48 hrs by sulforhodamine B assay; assay type: functional; conditions: SF-268, 48 h
# HL-60(TB) = assay: Cytotoxicity against human HL-60(TB) cells after 48 hrs by sulforhodamine B assay; assay type: functional; conditions: HL-60, 48 h
# T47D = assay: Cytotoxicity against human T47D cells after 48 hrs by sulforhodamine B assay; assay type: functional
# LOX IMVI = assay: Cytotoxicity against human LOXIMVI cells after 48 hrs by sulforhodamine B assay; assay type: functional
# [2] = Cytotoxicity against human NCI-ADR-RES cells after 48 hrs by sulforhodamine B assay; assay type: functional
# BT-549 = assay: Cytotoxicity against human BT549 cells after 48 hrs by sulforhodamine B assay; assay type: functional; conditions: BT-549, 48 h
# NCI-H522 = assay: Cytotoxicity against human NCI-H522 cells after 48 hrs by sulforhodamine B assay; assay type: functional; conditions: NCI-H522, 48 h
# 786-0 = assay: Cytotoxicity against human 786-0 cells after 48 hrs by sulforhodamine B assay; assay type: functional; conditions: 786-0, 48 h
# KM12 = assay: Cytotoxicity against human KM12 cells after 48 hrs by sulforhodamine B assay; assay type: functional; conditions: KM12, 48 h
# RPMI-8226 = assay: Cytotoxicity against human RPMI8226 cells after 48 hrs by sulforhodamine B assay; assay type: functional; conditions: RPMI-8226, 48 h
# RXF 393 = assay: Cytotoxicity against human RXF393 cells after 48 hrs by sulforhodamine B assay; assay type: functional; conditions: RXF 393, 48 h
# ACHN = assay: Cytotoxicity against human ACHN cells after 48 hrs by sulforhodamine B assay; assay type: functional
# [3] = molecular target: Signal transducer and activator of transcription 3 (Homo sapiens, UniProt P40763); assay: Inhibition of SH2 domain of STAT3 (unknown origin) using (FITC)-GpYLPQTV as substrate preincubated for 15 mins before substrate addition measured after 90 mins by alphascreen based assay
# PC-3 = assay: Cytotoxicity against human PC3 cells after 48 hrs by sulforhodamine B assay; assay type: functional; conditions: PC-3, 48 h
# MCF7 = assay: Cytotoxicity against human MCF7 cells after 48 hrs by sulforhodamine B assay; assay type: functional; conditions: MCF7, 48 h
# HT-29 = assay: Cytotoxicity against human HT-29 cells after 48 hrs by sulforhodamine B assay; assay type: functional; conditions: HT-29, 48 h
# [4] = Cytotoxicity against human OVCAR5 cells after 48 hrs by sulforhodamine B assay; assay type: functional; conditions: OVCAR-5, 48 h
# [5] = read-out: LC50 (the source's name)
# [6] = read-out: pLC50 (the source's name) (converted)
# Sequence of Signal transducer and activator of transcription 3 (P40763 whole entry, the tested form may be a part): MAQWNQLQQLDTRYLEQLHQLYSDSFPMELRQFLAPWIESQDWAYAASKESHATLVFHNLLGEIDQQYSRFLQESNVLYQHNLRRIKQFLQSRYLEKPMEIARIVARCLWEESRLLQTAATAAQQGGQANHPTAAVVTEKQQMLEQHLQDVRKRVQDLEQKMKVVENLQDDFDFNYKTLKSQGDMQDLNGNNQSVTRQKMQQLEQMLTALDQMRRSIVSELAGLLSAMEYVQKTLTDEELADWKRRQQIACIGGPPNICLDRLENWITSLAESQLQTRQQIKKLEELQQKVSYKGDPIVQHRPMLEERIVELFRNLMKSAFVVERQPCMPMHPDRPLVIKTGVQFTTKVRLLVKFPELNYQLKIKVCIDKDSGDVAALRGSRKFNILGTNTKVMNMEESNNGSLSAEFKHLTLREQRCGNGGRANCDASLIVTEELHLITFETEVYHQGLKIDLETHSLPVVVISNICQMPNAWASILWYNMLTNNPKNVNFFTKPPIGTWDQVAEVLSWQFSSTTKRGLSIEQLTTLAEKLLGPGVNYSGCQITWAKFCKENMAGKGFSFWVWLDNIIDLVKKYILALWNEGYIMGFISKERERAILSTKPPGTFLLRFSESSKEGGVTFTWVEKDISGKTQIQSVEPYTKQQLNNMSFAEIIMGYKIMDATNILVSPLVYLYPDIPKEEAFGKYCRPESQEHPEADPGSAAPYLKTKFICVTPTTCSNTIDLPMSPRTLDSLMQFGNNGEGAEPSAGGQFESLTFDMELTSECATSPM
structure (smiles),measurement,setting,value
O=C(Nc1nonc1-c1ccc(Cl)cc1)c1ccc(C(F)(F)F)cc1,GI50,CCRF-CEM; read-out: GI50,0.842 µM
same,CC50,CCRF-CEM; [5],> 100 µM
same,TGI,CCRF-CEM; read-out: TGI,10.7 µM
same,GI50,CCRF-CEM; read-out: pGI50 (converted),0.851 µM
same,CC50,CCRF-CEM; [6],> 100 µM
same,TGI,CCRF-CEM; read-out: pTGI (converted),10.7 µM
same,GI50,A498; read-out: GI50,1.73 µM
same,LC50,A498; read-out: LC50,> 100 µM
same,TGI,A498; read-out: TGI,5.46 µM
same,GI50,A498; read-out: pGI50 (converted),1.74 µM
same,LC50,A498; read-out: pLC50 (converted),> 100 µM
same,TGI,A498; read-out: pTGI (converted),5.5 µM
same,GI50,[1]; read-out: GI50,2.87 µM
same,CC50,[1]; [5],> 100 µM
same,TGI,[1]; read-out: TGI,> 100 µM
same,GI50,[1]; read-out: pGI50 (converted),2.88 µM
same,CC50,[1]; [6],> 100 µM
same,TGI,[1]; read-out: pTGI,> 100 µM
same,GI50,SK-OV-3; read-out: GI50,2.92 µM
same,CC50,SK-OV-3; [5],> 100 µM
same,TGI,SK-OV-3; read-out: TGI,7.6 µM
same,GI50,SK-OV-3; read-out: pGI50 (converted),2.88 µM
same,CC50,SK-OV-3; [6],> 100 µM
same,TGI,SK-OV-3; read-out: pTGI (converted),7.59 µM
same,GI50,SF-268; read-out: GI50,1.81 µM
same,LC50,SF-268; read-out: LC50,> 100 µM
same,TGI,SF-268; read-out: TGI,> 100 µM
same,GI50,SF-268; read-out: pGI50 (converted),1.82 µM
same,LC50,SF-268; read-out: pLC50 (converted),> 100 µM
same,TGI,SF-268; read-out: pTGI,> 100 µM
same,GI50,HL-60(TB); read-out: GI50,0.546 µM
same,CC50,HL-60(TB); [5],> 100 µM
same,TGI,HL-60(TB); read-out: TGI,2.85 µM
same,GI50,HL-60(TB); read-out: pGI50 (converted),0.55 µM
same,CC50,HL-60(TB); [6],> 100 µM
same,TGI,HL-60(TB); read-out: pTGI (converted),2.88 µM
same,GI50,T47D; read-out: GI50,3.13 µM
same,CC50,T47D; [5],> 100 µM
same,TGI,T47D; read-out: TGI,> 100 µM
same,GI50,T47D; read-out: pGI50 (converted),3.16 µM
same,CC50,T47D; [6],> 100 µM
same,TGI,T47D; read-out: pTGI,> 100 µM
same,GI50,LOX IMVI; read-out: GI50,0.872 µM
same,LC50,LOX IMVI; read-out: LC50,> 100 µM
same,TGI,LOX IMVI; read-out: TGI,57 µM
same,GI50,LOX IMVI; read-out: pGI50 (converted),0.871 µM
same,LC50,LOX IMVI; read-out: pLC50 (converted),> 100 µM
same,TGI,LOX IMVI; read-out: pTGI (converted),57.5 µM
same,GI50,[2]; read-out: GI50,2.66 µM
same,CC50,[2]; [5],> 100 µM
same,GI50,[2]; read-out: pGI50 (converted),2.63 µM
same,CC50,[2]; [6],> 100 µM
same,GI50,BT-549; read-out: GI50,2.22 µM
same,CC50,BT-549; [5],> 100 µM
same,TGI,BT-549; read-out: TGI,7.66 µM
same,GI50,BT-549; read-out: pGI50 (converted),2.24 µM
same,CC50,BT-549; [6],> 100 µM
same,TGI,BT-549; read-out: pTGI (converted),7.59 µM
same,GI50,NCI-H522; read-out: GI50,2.07 µM
same,CC50,NCI-H522; [5],> 100 µM
same,TGI,NCI-H522; read-out: TGI,7.12 µM
same,GI50,NCI-H522; read-out: pGI50 (converted),2.09 µM
same,CC50,NCI-H522; [6],> 100 µM
same,TGI,NCI-H522; read-out: pTGI (converted),7.08 µM
same,GI50,786-0; read-out: GI50,1.98 µM
same,LC50,786-0; read-out: LC50,> 100 µM
same,TGI,786-0; read-out: TGI,5.19 µM
same,GI50,786-0; read-out: pGI50 (converted),2 µM
same,LC50,786-0; read-out: pLC50 (converted),> 100 µM
same,TGI,786-0; read-out: pTGI,5.25 µM
same,GI50,KM12; read-out: GI50,3.06 µM
same,CC50,KM12; [5],> 100 µM
same,TGI,KM12; read-out: TGI,> 100 µM
same,GI50,KM12; read-out: pGI50 (converted),3.09 µM
same,CC50,KM12; [6],> 100 µM
same,TGI,KM12; read-out: pTGI,> 100 µM
same,GI50,RPMI-8226; read-out: GI50,1.05 µM
same,CC50,RPMI-8226; [5],> 100 µM
same,TGI,RPMI-8226; read-out: TGI,5.89 µM
same,GI50,RPMI-8226; read-out: pGI50 (converted),1.05 µM
same,CC50,RPMI-8226; [6],> 100 µM
same,TGI,RPMI-8226; read-out: pTGI (converted),5.89 µM
same,GI50,RXF 393; read-out: GI50,2.21 µM
same,CC50,RXF 393; [5],> 100 µM
same,TGI,RXF 393; read-out: TGI,6.07 µM
same,GI50,RXF 393; read-out: pGI50 (converted),2.24 µM
same,CC50,RXF 393; [6],> 100 µM
same,TGI,RXF 393; read-out: pTGI (converted),6.03 µM
same,GI50,ACHN; read-out: GI50,3.1 µM
same,CC50,ACHN; [5],> 100 µM
same,TGI,ACHN; read-out: TGI,8.74 µM
same,GI50,ACHN; read-out: pGI50 (converted),3.09 µM
same,CC50,ACHN; [6],> 100 µM
same,TGI,ACHN; read-out: pTGI (converted),8.71 µM
same,IC50,[3],17.7 µM
same,inhibition,[3],Dose-dependent effect
same,GI50,PC-3; read-out: GI50,1.38 µM
same,CC50,PC-3; [5],> 100 µM
same,TGI,PC-3; read-out: TGI,8.91 µM
same,GI50,PC-3; read-out: pGI50 (converted),1.38 µM
same,CC50,PC-3; [6],> 100 µM
same,TGI,PC-3; read-out: pTGI (converted),8.91 µM
same,GI50,MCF7; read-out: GI50,2.84 µM
same,CC50,MCF7; [5],> 100 µM
same,TGI,MCF7; read-out: TGI,8.15 µM
same,GI50,MCF7; read-out: pGI50 (converted),2.82 µM
same,CC50,MCF7; [6],> 100 µM
same,TGI,MCF7; read-out: pTGI (converted),8.13 µM
same,GI50,HT-29; read-out: GI50,3.23 µM
same,CC50,HT-29; [5],> 100 µM
same,TGI,HT-29; read-out: TGI,> 100 µM
same,GI50,HT-29; read-out: pGI50 (converted),3.24 µM
same,CC50,HT-29; [6],> 100 µM
same,TGI,HT-29; read-out: pTGI,> 100 µM
same,GI50,[4]; read-out: GI50,3.98 µM
same,LC50,[4]; read-out: LC50,> 100 µM
same,TGI,[4]; read-out: TGI,96.3 µM
same,GI50,[4]; read-out: pGI50 (converted),3.98 µM
same,LC50,[4]; read-out: pLC50 (converted),> 100 µM
same,TGI,[4]; read-out: pTGI (converted),95.5 µM
